Data set [1] can be described thus: Cytotoxicity against BALB/c mouse splenocytes after 24 hrs by [3H]thymidine incorporation assay. It is filed as cell-based. The note with it: splenocyte.
Data set [2] has as its system Trypanosoma cruzi. In words: Antitrypanosomal activity against Trypanosoma cruzi Y trypomastigote form after 24 hrs by Trypan blue exclusion method. It is filed as functional, organism-based.
For data set [3], the system named is Trypanosoma cruzi. In words: Antitrypanosomal activity against Trypanosoma cruzi Y epimastigote form after 11 days by Trypan blue exclusion method. It counts as functional, organism-based. The conditions noted are these: 264 h.

Molecules are shown by their SMILES.

The term IC50 denotes the concentration at which inhibition is half-maximal. In turn, `O=C1CSC(N/N=C\CCSc2ccccc2)=N1` showed an Activity in data set [1] greater than 100 µg/mL. The IC50 was 10 µM in the data set with Trypanosoma cruzi [2] and 2.9 µM in the data set with Trypanosoma cruzi [3].
Compound `CC1CS(=O)(=O)CCN1/N=C/c1ccc([N+](=O)[O-])o1` (stereo unspecified) [NIFURTIMOX] displayed an Activity in data set [1] of 1 µg/mL. The compound also yielded an IC50 with Trypanosoma cruzi [3] of 1.9 µM.
For the compound `O=C1CSC(N/N=C\CSc2ccccc2)=N1`, in data set [1], the Activity is greater than 100 µg/mL. Also, the results for the IC50 in the data set on Trypanosoma cruzi [2] and in the data set on Trypanosoma cruzi [3] were 7.8 µM and 35 µM, respectively.
The compound `Cc1ccc(SC/C=N\NC2=NC(=O)CS2)cc1` had an Activity in data set [1] greater than 100 µg/mL. The IC50 in the data set on Trypanosoma cruzi [2] is 20 µM; in the data set on Trypanosoma cruzi [3], 92.3 µM.
As to `O=C(Cn1ccnc1[N+](=O)[O-])NCc1ccccc1` [BENZNIDAZOLE], the Activity in data set [1] amounted to 25 µg/mL. The compound further had an IC50 with Trypanosoma cruzi [3] of 6.6 µM.
In the same order, the values of `C/C(CSc1ccccc1)=N/NC1=NC(=O)C(C)S1` (stereo unspecified) are greater than 100 µg/mL and 83.3 µM.
Take `CCC1SC(N/N=C\CSc2ccccc2)=NC1=O` (stereo unspecified): the Activity in data set [1] was greater than 100 µg/mL. Further, the figures for the IC50 in the data set on Trypanosoma cruzi [2] and in the data set with Trypanosoma cruzi [3] were 48.2 µM and 0.3 µM, respectively.
As for `O=C1CSC(N/N=C\CSc2ccc(Br)cc2)=N1`, in data set [1], the Activity is greater than 100 µg/mL. Moreover, the IC50 in the data set with Trypanosoma cruzi [3] turned out to be 42.9 µM.
In data set [1], `Cc1ccc(SC/C=N\NC2=NC(=O)C(C)S2)cc1` (stereo unspecified) displayed an Activity greater than 100 µg/mL. The IC50 in the data set with Trypanosoma cruzi [2] was 84.8 µM; with Trypanosoma cruzi [3], 63.4 µM.
In the same order, the values of `O=C1CSC(N/N=C\CSc2ccc(Cl)cc2)=N1` are greater than 100 µg/mL, 82.4 µM and 43.9 µM.

The record behind these values is ChEMBL document CHEMBL1155255, “Ruthenium complexes endowed with potent anti-Trypanosoma cruzi activity: Synthesis, biological characterization and structure-activity relationships” (Bioorg Med Chem, 2009).
